Measurements taken from patent US10745360B2, “Quinoxaline compounds, method for preparing the same and use thereof” (Development Center for Biotechnology, priority 2014, dated 2020).

Columns and labels:
[1] = system: B-Raf^V600E mutant COLO205 colon cancer cell; test: Cell proliferation assay (CELLTITER 96), COLO205; format: cell-based; settings: Homo sapiens, COLO 205; COLO205, 72 hours; read-out: Cytotoxicity (IC50 Ranking) COLO205 (B-Raf^V600E)
Protocol: (§1) Inhibition of cell growth by compounds was measured using CELLTITER 96® assay. The cytotoxicity of compounds was evaluated in B-Raf^V600E mutant A375 melanoma cell, B-Raf^V600E mutant COLO205 colon cancer cell, and SK-MEL-2 melanoma cell with wild type B-Raf (B-Raf^wt) and NRASQ^Q61R mutation. A375 and COLO205 cell line were cultured in DMEM containing 10% FCS and incubated at 37° C. in 5% CO2 atmosphere. SK-MEL-2 cell line was cultured in MEM containing 10% FCS and incubated at 37° C. in 5% CO2 atmosphere. A375, COLO205 and SK-MEL-2 cell were seeded into 96-well plates at 2000, 2000, and 4000 cells/well, respectively, and allowed to adhere for overnight. Then, these seeded cells were treated with increasing concentrations of the test compounds and incubated for another 72 hours. At the end of the incubation, CELLTITER 96® Aqueous One Solution Reagent (Promega) was added and incubated for 4 hours. Cell viability was determined by measuring absorbance at 490 nm using EMAX® microplate reader (Molecular Devices).
(§2) The 50% inhibitory concentration (IC50) value was calculated by plotting the percentage of growth inhibition against the concentration of compound, using GraphPad Prism5 software for curve fitting.

[2] = system: B-Raf^V600E mutant A375 melanoma cell; test: Cell proliferation assay (CELLTITER 96), A375; format: cell-based; settings: Homo sapiens, A-375; A375, 72 hours; read-out: Cytotoxicity (IC50 Ranking) A375 (B-Raf^V600E)
Protocol: as §1, §2

[3] = target: T1, C-Raf kinase (Homo sapiens, UniProt P04049); test: C-Raf kinase assay ([33P] incorporation into MEK1 K97R); format: biochemical; settings: recombinant C-Raf, 8 μM ATP, 30 min, 30° C.; read-out: IC50 ranking against C-Raf kinase
T1 construct: purchased Upstate Biotechnology
T1 sequence (P04049 whole entry): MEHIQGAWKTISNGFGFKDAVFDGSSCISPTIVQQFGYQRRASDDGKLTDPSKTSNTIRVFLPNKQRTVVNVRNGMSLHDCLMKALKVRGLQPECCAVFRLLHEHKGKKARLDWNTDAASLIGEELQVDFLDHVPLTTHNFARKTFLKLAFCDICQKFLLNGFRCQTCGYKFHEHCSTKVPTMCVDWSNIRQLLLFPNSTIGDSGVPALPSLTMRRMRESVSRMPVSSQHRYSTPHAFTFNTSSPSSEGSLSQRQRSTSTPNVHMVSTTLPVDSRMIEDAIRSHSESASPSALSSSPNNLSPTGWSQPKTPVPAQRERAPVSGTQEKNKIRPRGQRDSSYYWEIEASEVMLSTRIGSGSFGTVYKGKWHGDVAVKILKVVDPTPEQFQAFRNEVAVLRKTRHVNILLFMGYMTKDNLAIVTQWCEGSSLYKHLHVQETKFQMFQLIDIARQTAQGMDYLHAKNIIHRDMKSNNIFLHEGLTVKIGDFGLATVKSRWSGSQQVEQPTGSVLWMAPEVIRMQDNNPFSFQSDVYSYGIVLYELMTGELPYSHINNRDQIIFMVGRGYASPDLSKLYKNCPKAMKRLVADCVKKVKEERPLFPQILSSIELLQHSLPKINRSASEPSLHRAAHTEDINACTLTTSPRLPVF
Protocol: (§3) Inhibition of kinase activity by a test compound disclosed herein was estimated by quantifying the amount of [^33P] incorporation of a substrate in the presence of the test compound. Standard assay conditions were 2 ng of recombinant C-Raf kinase (Upstate Biotechnology) with 500 ng MEK1(K97R) in assay buffer (8 μM ATP, 0.5 μCi [^33P]ATP (specific activity 3000 Ci/mmol, PerkinElmer), 50 mM Tris/HCl (pH 7.5), and 1 mM EGTA, 1 mM Na3VO4, 1% 2-mercaptoethanol, 0.1% Brij 35, and 0.2 mg/ml BSA), and the test compound (diluted with 4% DMSO) or DMSO alone (as a control) in a final volume of 25 μL. Reactions were incubated at 30° C. for 30 min and stopped by adding 3% phosphoric acid, harvested onto a 96-well GF/B UniFilter (PerkinElmer) using a unifilter harvester (PerkinElmer), and counted with a TopCount microplate scintillation counter (PerkinElmer). The IC50 values of inhibitors were determined after carrying out assays at 3-fold serially diluted concentrations of each compound in duplication. The results were analyzed using linear regression software (GraphPad Prism 4; GraphPad Software Inc.).

[4] = target: T2, B-Raf kinase (Homo sapiens, UniProt P15056); test: B-Raf kinase assay ([33P] incorporation into MEK1 K97R); format: biochemical; settings: recombinant B-Raf, 8 μM ATP, 30 min, 30° C.; read-out: IC50 ranking against B-Raf kinase
T2 construct: purchased Upstate Biotechnology
T2 sequence (P15056 whole entry): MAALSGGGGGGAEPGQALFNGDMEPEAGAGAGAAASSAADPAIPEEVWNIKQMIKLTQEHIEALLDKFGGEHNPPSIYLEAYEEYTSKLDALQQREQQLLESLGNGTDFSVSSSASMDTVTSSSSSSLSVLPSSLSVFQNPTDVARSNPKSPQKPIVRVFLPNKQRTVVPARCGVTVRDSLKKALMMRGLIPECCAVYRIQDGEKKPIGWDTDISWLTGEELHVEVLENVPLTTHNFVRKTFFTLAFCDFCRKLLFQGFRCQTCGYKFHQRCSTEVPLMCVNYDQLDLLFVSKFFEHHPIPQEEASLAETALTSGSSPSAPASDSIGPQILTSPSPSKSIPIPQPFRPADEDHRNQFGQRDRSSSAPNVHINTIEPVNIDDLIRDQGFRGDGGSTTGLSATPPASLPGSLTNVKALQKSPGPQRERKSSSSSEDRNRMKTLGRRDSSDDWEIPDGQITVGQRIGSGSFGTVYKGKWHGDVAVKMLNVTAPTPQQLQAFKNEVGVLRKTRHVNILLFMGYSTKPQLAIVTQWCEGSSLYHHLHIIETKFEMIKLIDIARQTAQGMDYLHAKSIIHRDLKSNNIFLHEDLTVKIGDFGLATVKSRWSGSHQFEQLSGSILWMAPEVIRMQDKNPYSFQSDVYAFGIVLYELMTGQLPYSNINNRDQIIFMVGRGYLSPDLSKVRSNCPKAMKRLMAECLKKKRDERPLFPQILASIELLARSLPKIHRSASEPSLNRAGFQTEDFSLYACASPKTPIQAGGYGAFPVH
Protocol: Inhibition of kinase activity by a test compound disclosed herein was estimated by quantifying the amount of [^33P] incorporation of a substrate in the presence of the test compound. Standard assay conditions were 5 ng of recombinant B-Raf kinase (Upstate Biotechnology) with 500 ng MEK1(Map-erk kinase; K97R) in the assay buffer (8 μM ATP, 0.5 μCi [^33P]ATP (specific activity 3000 Ci/mmol, PerkinElmer), 50 mM Tris/HCl (pH 7.5), and 1 mM EGTA, 1 mM Na3VO4, 1% 2-mercaptoethanol, 0.1% Brij 35, and 0.2 mg/ml BSA) in a final volume of 25 μL. Reactions were incubated at 30° C. for 30 min and stopped by adding 3% phosphoric acid, harvested onto a 96-well GF/B UniFilter (PerkinElmer) using a unifilter harvester (PerkinElmer), and counted with a TopCount microplate scintillation counter (PerkinElmer). The IC50 values of inhibitors were determined after carrying out assays at 3-fold serially diluted concentrations of each compound in duplication. The results were analyzed using linear regression software (GraphPad Prism 4; GraphPad Software Inc.).

[5] = system: SK-MEL-2 melanoma cell with wild type B-Raf (B-Raf^wt) and NRAS^Q61R mutation; test: Cell proliferation assay (CELLTITER 96), SK-MEL-2; format: cell-based; settings: Homo sapiens; SK-MEL-2, 72 hours; given as bound; read-out: Cytotoxicity (IC50 Ranking) SK-MEL-2 (NRAS^Q61R, B-Raf^wt)
Protocol: as §1, §2

[6] = target: T3, B-Raf^V600E kinase (Homo sapiens, UniProt P15056, V600E); test: B-Raf V600E kinase assay ([33P] incorporation into MEK1 K97R); format: biochemical; settings: recombinant B-Raf^V600E, 8 μM ATP, 30 min, 30° C.; read-out: IC50 ranking against B-Raf^V600E kinase
T3 construct: purchased Upstate Biotechnology
T3 sequence (P15056 whole entry V600E): as the sequence (P15056 whole entry) above, with V600E counted along it
Protocol: as §3, with “were 5” for “were 2”, “recombinant B-Raf^V600E” for “recombinant C-Raf”, “ng MEK1 (K97R)” for “ng MEK1(K97R)”

| IC50 [3] [nM] | IC50 [4] [nM] | IC50 [6] [nM] | SMILES | IC50 [1] [nM] | IC50 [2] [nM] | IC50 [5] [nM] |
| --- | --- | --- | --- | --- | --- | --- |
| < 300 | < 300 | < 300 | CCCS(=O)(=O)Nc1ccc(F)c(Nc2ccc3ncc(Nc4c(F)ccc(NS(=O)(=O)CCC)c4F)nc3c2)c1F [compound 1, N1-3-[(3-{2,6-difluoro-3-[(propylsulfonyl)amino]anilino}-6-quinoxalinyl)amino]-2,4-difluorophenyl-1-propanesulfonamide] | 1000 to 10000 | 1000 to 10000 | > 10000 |
| < 300 | < 300 | < 300 | CCCS(=O)(=O)Nc1ccc(F)c(Nc2ccc3ncc(Nc4c(F)cccc4F)nc3c2)c1F [compound 2, N1-(3-{[3-(2,6-difluoroanilino)-6-quinoxalinyl]amino}-2,4-difluorophenyl)-1-propanesulfonamide] | 300 to 1000 | 300 to 1000 | > 10000 |
| 300 to 1000 | 300 to 1000 | 300 to 1000 | CCCS(=O)(=O)Nc1ccc(F)c(Nc2ccc3ncc(OC)nc3c2N)c1F [compound 3, N1-{3-[(5-amino-3-methoxy-6-quinoxalinyl)amino]-2,4-difluorophenyl}-1-propanesulfonamide] |  |  |  |
| < 300 | < 300 | < 300 | CCCS(=O)(=O)Nc1ccc(F)c(Nc2ccc3ncc(OC)nc3c2[N+](=O)[O-])c1F [compound 4, N1-{2,4-difluoro-3-[(3-methoxy-5-nitro-6-quinoxalinyl)amino]phenyl}-1-propanesulfonamide] | < 300 | < 300 | > 10000 |
| < 300 | < 300 | < 300 | COc1cnc2ccc(Nc3c(F)ccc(NS(=O)(=O)CCCF)c3F)c([N+](=O)[O-])c2n1 [compound 5, N1-{2,4-difluoro-3-[(3-methoxy-5-nitro-6-quinoxalinyl)amino]phenyl}-3-fluoro-1-propanesulfonamide] | < 300 | < 300 | > 10000 |
| < 300 | < 300 | < 300 | CCCS(=O)(=O)Nc1ccc(F)c(Nc2ccc3ncc(OCCN4CCOCC4)nc3c2[N+](=O)[O-])c1F [compound 6, N1-(2,4-difluoro-3-{[3-(2-morpholinoethoxy)-5-nitro-6-quinoxalinyl]amino}phenyl)-1-propanesulfonamide] | < 300 | < 300 | > 10000 |
| < 300 | < 300 | < 300 | CCCS(=O)(=O)Nc1ccc(F)c(Nc2ccc3ncc(OCCOC)nc3c2[N+](=O)[O-])c1F [compound 7, N1-(2,4-difluoro-3-[3-(2-methoxyethoxy)-5-nitro-6-quinoxalinyl]aminophenyl)-1-propanesulfonamide] | < 300 | < 300 | > 10000 |
| 300 to 1000 | 300 to 1000 | 300 to 1000 | CCCS(=O)(=O)Nc1ccc(F)c(Nc2ccc3ncc(NC(=O)C4CC4)nc3c2)c1F [compound 8, N1-(7-{2,6-difluoro-3-[(propylsulfonyl)amino]anilino}-2-quinoxalinyl)-1-cyclopropanecarboxamide] | 1000 to 10000 | 1000 to 10000 | > 10000 |
| < 300 | < 300 | < 300 | CCCS(=O)(=O)Nc1ccc(F)c(Nc2ccc3ncc(OCCN(C)C)nc3c2[N+](=O)[O-])c1F [compound 9, N1-[3-({3-[2-(dimethylamino)ethoxy]-5-nitro-6-quinoxalinyl}amino)-2,4-difluorophenyl]-1-propanesulfonamide] | < 300 | < 300 | > 10000 |
| < 300 | < 300 | < 300 | CCCS(=O)(=O)Nc1ccc(F)c(Nc2ccc3ncc(OC)nc3c2C#N)c1F [compound 10, N1-{3-[(5-cyano-3-methoxy-6-quinoxalinyl)amino]-2,4-difluorophenyl}-1-propanesulfonamide] | < 300 | < 300 | > 10000 |
| < 300 | < 300 | < 300 | CCCS(=O)(=O)Nc1ccc(F)c(Nc2ccc3ncc(Nc4ccccc4F)nc3c2)c1F [compound 11, N1-(2,4-difluoro-3-{[3-(2-fluoroanilino)-6-quinoxalinyl]amino}phenyl)-1-propanesulfonamide] | 1000 to 10000 | 300 to 1000 | > 10000 |
| < 300 | < 300 | < 300 | CCCS(=O)(=O)Nc1ccc(F)c(Nc2ccc3ncc(Nc4cccnc4)nc3c2)c1F [compound 12, N1-(2,4-difluoro-3-{[3-(3-pyridylamino)-6-quinoxalinyl]amino}phenyl)-1-propanesulfonamide] | 300 to 1000 | 1000 to 10000 | > 10000 |
| < 300 | < 300 | < 300 | CCCS(=O)(=O)Nc1ccc(F)c(Nc2ccc3ncc(Nc4ccc(F)cc4F)nc3c2)c1F [compound 13, N1-(3-{[3-(2,4-difluoroanilino)-6-quinoxalinyl]amino}-2,4-difluorophenyl)-1-propanesulfonamide] | 1000 to 10000 | 300 to 1000 | > 10000 |
|  | 1000 to 10000 |  | CCCS(=O)(=O)Nc1ccc(F)c(Nc2cc3nc(OC)cnc3cc2C)c1F [compound 32, N-(2,4-difluoro-3-(3-methoxy-7-methylquinoxalin-6-ylamino)phenyl)propane-1-sulfonamide] |  |  |  |
| 1000 to 10000 | 1000 to 10000 | 1000 to 10000 | CCCS(=O)(=O)Nc1cc(Nc2ccc3ncc(OC)nc3c2C#N)ccc1C [compound 45, N-(5-(5-cyano-3-methoxyquinoxalin-6-ylamino)-2-methylphenyl)propane-1-sulfonamide] |  |  |  |
